# Source: US20080096922A1, “Novel Sulfonamide derivative” (Dainippon Sumitomo Pharma Co., Ltd., priority 2004, published 2008)
# Counter-ions that a name gives are not always drawn.
# Experiments:
# [1] = tested on: LDL receptor; assay: Effects on an activity of a LDL receptor: uptake amount of DiI-LDL into HepG2 cell; assay type: cell-based, human; details: control group as 100%
# Procedure: The 1,1′-dioctadecyl-3,3,3′,3′-tetramethylindocarbocyanine perchlorate (DiI)-labeled LDL (DiI-LDL) was prepared as follows. That is, a DiI (Invitrogen Corp., U.S.A) was mixed with a human LDL (Chemicon International, Inc., U.S.A) and the mixture was incubated at 37° C. for 8 hours. […] After centrifugation, the DiI-labeled LDL fraction was separated and dialyzed with a physiological saline to prepare the above desired solution.
# The effects on a LDL receptor activity were determined as the uptake amount of DiI-LDL into HepG2 cell. The cultured human hepatic cell line HepG2 cell was purchased from the Dainippon Pharmaceuticals Co. Ltd. (Osaka, Japan). The HepG2 cells were seeded in a 96 well plate and were incubated in the Dulbecco's modified Eagle/F-12 (DMEM/F-12) medium containing 10% fetal bovine serum and antibiotics in a CO2 incubator at 37° C. for two to three days. After washing the cells, a DMEM/F-12 medium containing 5-10% lipoprotein-deficient serum, the test substrate and the antibiotics were added thereto and the cells were incubated at 37° C. for 19 hours. After adding DiI-LDL, the cells were incubated in a CO2 incubator at 37° C. for another 5 hours. The uptake amount of non-specific DiI-LDL was measured by adding 30 to 50 folds amount of the non-labeled LDL. After washing the cells with Dulbecco's phosphate buffer (Sigma Corp., U.S.A.), the Dulbecco's phosphate buffer was added to each well and then the uptake amount of DiI-LDL into the cell line were measured as the value of fluorescence. After measuring the fluorescence, the Dulbecco's phosphate buffer was removed and thereto was added 1N sodium hydroxide solution to dissolve the cells and the amount of protein was measured by using a part of the resulting solution. The effect on a LDL receptor activity by each compound was determined by calculating the ratio of the amount of fluorescence/the amount of protein, and by subtracting the non-specific uptake amount therefrom and then calculating the control group as 100%.
# [2] = tested on: LDL receptor protein; assay: Measurement of an expression of a LDL receptor (immunoblotting, HepG2); assay type: cell-based, human; details: HepG2 cell, test compound at 0.1 and 1 μM, compared to a control group
# Procedure: The activity of potentiating an expression of a LDL receptor by the test compounds were measured using a human hepatic cell line HepG2. Cells were seeded in a 6 well plate at the density of 7.5×10^5 cells/well (at first day). On third days, the medium was changed to a medium containing lipoprotein-deficient serum and the test compound. On forth days, the cells were scraped and collected by a centrifugation. The recovered cells were dissolved in a cell lysate buffer containing 0.1% TritonX-100 and after centrifugation, the supernatant was used as a solution of cell protein. The amount of the LDL-R protein was evaluated by an immunoblotting method using the above-prepared solution of cell protein.
# After treating the HepG2 cell with the compound of Example 1-2, the amount of LDL receptor protein was detected by an immunoblotting method.
SMILES,Activity of (%) LDL receptor ([1]; 10 μM) [%],Activity of (%) LDL receptor ([1]; 1 μM) [%],further results
"COc1cccc(C2(C(=O)NS(=O)(=O)Oc3c(C(C)C)cccc3C(C)C)CCN(c3ccccc3OC)CC2)c1 [Example 1-2, 2,6-diisopropylphenyl {[1-(2-methoxyphenyl)-4-(3-methoxyphenyl)piperidin-4-yl]carbonyl}sulfamate]",124,,amount of a LDL receptor protein [2]: superior increasing effect
"COc1cccc([C@]2(CNS(=O)(=O)N(C)C(=O)OC(C)(C)C)CC[C@@H](NCc3ccc(-c4ccccc4)cc3)CC2)c1 [Example 48, tert-butyl [({[cis-4-[(biphenyl-4-ylmethyl)amino]-1-(3-methoxyphenyl)cyclohexyl]methyl}amino)sulfonyl]methylcarbamate]",,145,
"CNS(=O)(=O)NC[C@]1(c2cccc(OC)c2)CC[C@H](NCc2ccc(-c3ccccc3)cc2)CC1.Cl [Example 49, N-{[cis-4-[(biphenyl-4-ylmethyl)amino]-1-(3-methoxyphenyl)cyclohexyl]methyl}-N′-methylsulfamide hydrochloride]",,208,
"COc1cccc([C@]2(CNS(N)(=O)=O)CC[C@H](NC3CCN(Cc4ccccc4)CC3)CC2)c1 [Example 55, N-{[trans-4-[(1-benzylpiperidin-4-yl)amino]-1-(3-methoxyphenyl)cyclohexyl]methyl}sulfamide dihydrochloride]",140,,
"COc1cccc(C2(C(=O)NS(=O)(=O)Oc3c(C(C)C)cccc3C(C)C)CC3CCCC(C2)N3c2ccccc2OC)c1.Cl (stereo not drawn) [Example 57, 2,6-diisopropylphenyl {[9-(2-methoxyphenyl)-3-(3-methoxyphenyl)-9-azabicyclo[3.3.1]nonan-3-yl]carbonyl}sulfamate hydrochloride]",,,Activity of (%) LDL receptor ([1]; 3 μM): 124%
